How the values were obtained:
Format in all cases: biochemical
[1] = biological target: T1, purified A. niger NR (E.C. 1.6.6.2) (Aspergillus niger, UniProt P36858); experiment: Evaluation of buffer-metal interactions, NR activity by rate of NADPH disappearance; conditions: 5 μM metal; for NR sensitivity to metal in TRIS buffered system: 30 mM TRIS buffer pH 7.5; for NR sensitivity to metal in phosphate buffered system: 30 mM phosphate buffer pH 7.5
T1 construct: purchased Sigma-Aldrich Co. (St. Louis, Mo.)
T1 sequence (P36858 1-867): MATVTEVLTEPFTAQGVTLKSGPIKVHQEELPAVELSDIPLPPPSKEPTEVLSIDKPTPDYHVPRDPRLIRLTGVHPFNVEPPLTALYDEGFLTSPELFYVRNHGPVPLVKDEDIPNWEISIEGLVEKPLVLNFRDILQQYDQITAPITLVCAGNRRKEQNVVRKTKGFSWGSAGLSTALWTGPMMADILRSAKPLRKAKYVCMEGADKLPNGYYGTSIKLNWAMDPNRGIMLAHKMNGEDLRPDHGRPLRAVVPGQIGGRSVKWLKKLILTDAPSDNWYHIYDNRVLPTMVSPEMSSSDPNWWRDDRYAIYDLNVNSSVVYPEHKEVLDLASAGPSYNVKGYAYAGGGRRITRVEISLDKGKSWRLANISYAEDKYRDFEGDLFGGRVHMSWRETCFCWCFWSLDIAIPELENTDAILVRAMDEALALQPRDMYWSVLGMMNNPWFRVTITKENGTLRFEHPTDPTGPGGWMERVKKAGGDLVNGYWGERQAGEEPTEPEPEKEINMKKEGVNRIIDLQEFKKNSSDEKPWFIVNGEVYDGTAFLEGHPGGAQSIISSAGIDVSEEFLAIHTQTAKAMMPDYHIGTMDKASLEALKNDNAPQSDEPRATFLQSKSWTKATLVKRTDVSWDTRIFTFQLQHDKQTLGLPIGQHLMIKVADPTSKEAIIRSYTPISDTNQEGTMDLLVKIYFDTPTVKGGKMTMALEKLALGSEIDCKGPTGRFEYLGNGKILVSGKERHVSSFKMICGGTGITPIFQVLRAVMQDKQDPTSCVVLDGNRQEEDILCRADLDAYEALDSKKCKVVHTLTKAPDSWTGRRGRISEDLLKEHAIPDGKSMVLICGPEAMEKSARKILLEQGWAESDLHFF
Procedure: To determine the buffer that would provide minimal metal-buffer complexation and, therefore, allow maximal metal inhibition to NR activity, an analysis of various pH buffers was performed. HEPES, MOPS, PIPES, phosphate, and TRIS buffers were individually evaluated in the presence of NR and 5 μM of each of the following metals: Cr^3+, Cr^6+, Cd^2+, Cu^2+, Pb^2+, and Zn^2+. An unbuffered assay system was used to establish a baseline of metal-induced enzyme inhibition. Reagents were added in the following order: the metal stock solution, the buffer solution, KNO3 solution, NR, and NADPH.
For these buffer experiments, NR and NADPH solutions were prepared in water rather than in the 30 mM MOPS, as was done for all other experiments. The final concentration of all reagents was 30 mM of each respective buffer, 5 μM metal, 50 μg ml^−1 NR, 10 mM KNO3 and 0.1 mM NADPH. NADPH addition initiated the reaction but NR activity was determined following the method described in Gilliam et al., Anal. Biochem., 212:359–365 (1993), which is based on the rate of NADPH disappearance. The presence of NADPH, which has a peak absorbance at 340 nm, was monitored with respect to time for 3 minutes using a Hewlett Packard 8452A UV-Vis spectrophotometer. NR activity was then reported as a ratio of the change in absorbance of a metal-containing sample to the change in absorbance of a positive (metal-free) control. The inherent instability of NADPH and the potential for oxidation in the presence of the metals used in these experiments was accounted for in negative controls, which contained all reagents but NR.
To select a buffering system that allowed for maximum inhibition of the enzyme by metal ions, several common buffers, HEPES, MOPS, PIPES, Phosphate and TRIS were tested in metal inhibition assays. The buffers used in the assay affected the sensitivity of NR to the metal ions examined due to some of the buffers' ability to chelate metal ions, as shown in FIG. 1. NR activity is reported as the percent of a metal free control. Values represent the averages of five replicate experiments. NR activity assays were also run in an unbuffered water system to establish a baseline level of metal sensitivity and to determine if the buffers were shielding NR from inhibition by any of the metals that were examined. An unbuffered assay system was not selected for further experiments because the pH was not uniformly maintained for the various conditions under which NR activity would be measured. […] Therefore, MOPS was chosen for use in subsequent metal inhibition assays over a wider range of metal concentrations. The phosphate and TRIS buffers appeared to selectively protect NR against different metals. […] The opposite was found when the assay was conducted in a TRIS buffered system where NR was insensitive to Cu^2+ ions and was inhibited by Cd^2+, Cr^6+, Pb^2+, and Zn^2+.

[2] = biological target: T1, purified A. niger NR (E.C. 1.6.6.2); experiment: Regeneration of metal inactivated NR activity by 10 mM EDTA; conditions: for NR activity after EDTA treatment, % of control: 100 μM metal five minutes, then 10 mM EDTA; for restoration of NR activity by EDTA after metal exposure / NR activity before EDTA treatment, % of control: 100 μM metal; for restoration of NR activity by EDTA after metal exposure: 10 mM EDTA; for NR activity before EDTA treatment, % of control: five minutes, 25° C., 10 mM KNO3
Procedure: To determine whether inhibition caused by exposure to the metals could be reversed by the addition of EDTA, NR was exposed to 100 μM of the following metals: Cd^2+, Cr^3+, Cu^2+, Pb^2+ and Zn^2+ for five minutes in a 96-well plate and incubated at 25° C. with 10 mM KNO3. After five minutes, 10 mM EDTA was added and solutions were shaken for 10 seconds. NADPH was added to sets of positive controls, negative controls, and metal/NR and EDTA for evaluation of NR activity both immediately after EDTA addition and 30 minutes after EDTA addition. Enzyme activity was measured by determining the amount of nitrite produced and reported as a percent of a positive control.

[3] = biological target: T1, purified A. niger NR (E.C. 1.6.6.2); experiment: Metal inhibition of NR activity, colorimetric nitrite production (Griess reaction), MOPS buffer; conditions: for enzyme inhibition: 1 μM metal ion; for enzyme inhibition / span of concentrations over which NR activity is inhibited: MOPS buffer; for span of concentrations over which NR activity is inhibited: no chelating agent
Procedure: NR activity was measured using the Griess reaction in which nitrite is colorimetrically determined by diazotization and diazomium coupling reactions of nitrite with sulfanilamide and N-(1-naphthyl)ethylenediamine. Measurements were conducted in 96-well microtiter plates, allowing multiple reactions to be quantified simultaneously. The assay followed the method as described in R. Kneer et al., Phytochemistry, 31:2663–2667 (1992), with modifications including the adaptation for use in a 96-well plate format, the reduction of the assay time to 5 minutes, and the substitution of a 12.5 mM MOPS buffer instead of the 33 mM TRIS buffer used.
This was followed by the addition of 40 μl 0.2% (wt.) N-(1-naphthyl)ethylenediamine. The absorbance of the resulting pink solution read at 540 nm was recorded after ten minutes using a microplate reader (HTS7000 Plus Bioassay Reader, Perkin Elmer, Conn.).
Negative controls containing all reagents except NR were run and analyzed for nitrite. An activity of 100% indicated the rate of nitrate conversion in the absence of Cr(III). Positive controls, which comprised no metal but comprised all other reagents, were also run. Additional controls comprising nitrite, NR and NADPH were run to rule out the possibility that NR reduced the nitrite.
NR activity is reported as a percentage of the experimentally measured activity of the positive (metal-free) control or as a ratio of the change in absorbance of a metal-containing sample to the change in absorbance of a positive (metal-free) control. An activity of 100% indicated the rate of nitrate conversion in the absence of the metal. Data points represent the averages of seven replicate experiments and error bars represent the standard deviation of those averages, unless otherwise stated.
NR, NADPH, and KNO3 were used in the same concentrations as in the metal-free NR and buffer evaluation assays. For metal-inhibition studies in the absence of a chelating agent, the appropriate concentration of metal stock solution was added to the NR and KNO3 solution. The mixture was allowed to incubate at 25° C. for five minutes prior to the addition of NADPH to allow adequate time for the metal and NR to interact. A 12.5 mM MOPS buffer solution was used to maintain the pH at 7.5. Final metal concentrations in the assay solution ranged from 0.01 μM to 1000 μM. Enzyme activity was determined as described above by the calorimetric quantification of nitrite production and reported as a percentage of the nitrite produced in a metal-free control.
The sensitivity of NR to Cr(III) was determined at concentrations ranging from 1 to 10 μM. […] To further determine the extent to which NR was sensitive to metals in aqueous samples, the activity of purified NR was evaluated in the presence of Cd^2+, Cu^2+, Cr^3+, Cr^6+, Ni^2+, Pb^2+, and Zn^2+ ions at concentrations ranging from 0.01 to 1000 μM.

[4] = biological target: T1, purified A. niger NR (E.C. 1.6.6.2); experiment: EDTA and NTA chelation experiments, NR activity by nitrite production; conditions: for effect of EDTA on the metal's ability to inhibit NR: EDTA 0.1 to 10 mM
Procedure: To determine the ability of chelating agents to prevent NR inhibition, EDTA or NTA was added to the enzymatic assay. For the experiments in which either EDTA or NTA was used, the reagents were added in the following order: the appropriate metal solution, EDTA or NTA, NR, nitrate, and finally NADPH. To allow sufficient time for the metal and chelating agent to react, the metal and either EDTA or NTA were added together prior to the addition of NR. Final assay metal ion concentrations ranged from 0.01 to 1000 μM. EDTA and NTA had final concentrations of 0.1 mM, 1 mM and 10 mM. Final concentrations of NR, KNO3 and NADPH were as described above. NR activity was assayed by monitoring the production of nitrite, as described above.

[5] = 12.5 mM MOPS pH 7.5, no chelating agent

SMILES | NR sensitivity to metal in TRIS buffered system [1] | NR sensitivity to metal in phosphate buffered system [1] | NR activity after EDTA treatment, % of control [2] | restoration of NR activity by EDTA after metal exposure [2] | NR activity before EDTA treatment, % of control [2] | enzyme inhibition [3] [%] | metal concentration at which NR activity was substantially inhibited [3, 5] | metal concentration at which NR activity was substantially inhibited ([3]; 12.5 mM MOPS pH 7.5, no chelating agent, listed as Cr^6+) [µM] | span of concentrations over which NR activity is inhibited [3] | effect of NTA on the inhibitory effects of the metal ([4]; 1 mM NTA) | increase of the concentration range over which the metal inhibited NR ([4]; 10 mM EDTA) | metal concentration up to which EDTA protected NR activity ([4]; 10 mM EDTA) | protection of NR by NTA from exposure to the metal ([4]; 10 mM NTA) | effect of EDTA on the metal's ability to inhibit NR ([4]; listed as Cr(VI)) | effect of EDTA on the metal's ability to inhibit NR ([4]; listed as Cr^6+) | NTA concentration up to which the metal's inhibitory effects on NR activity were not affected ([4]; NTA added to assay) | metal concentrations over which NTA protected NR from metal induced inhibition ([4]; 10 mM NTA) | NR activity retained, percent of original activity (metal free control) ([3]; 1000 μM metal ion, 12.5 mM MOPS pH 7.5) [%] | metal concentration at which NR activity was inhibited / adversely affected [3, 5]
[Cd+2] [Cd^2+, cadmium] | inhibited | relatively insensitive | 28% ± | partially restored | 2.7% ± |  |  |  |  |  |  |  |  |  |  |  |  |  | 
[Cr+3] [Cr^3+, chromium] | inhibited | relatively insensitive | 4.3% ± 1.9% | unable to significantly restore | 5.7% ± 10% | 62 | above 4 μM | 1 | several orders of magnitude | did not affect | two orders of magnitude | up to 100 μM | did not protect | unchanged | virtually unaffected | up to 10 mM |  |  | 
[Cu+2] [Cu^2+, copper] | insensitive | inhibited | 5.1% ± 1.5% | unable to significantly restore | 1.0% ± 0.3% | 76 | 1 µM |  | several orders of magnitude |  |  |  |  |  |  |  | up to 100 μM |  | 
[Ni+2] [Ni^2+, nickel] |  |  |  |  |  |  |  |  |  |  |  |  |  |  |  |  |  | ~20 | over 100 μM
[Pb+2] [Pb^2+, lead] | inhibited | relatively insensitive | 40% ± | partially restored | 1.3% ± |  |  |  |  |  |  |  |  |  |  |  |  |  | 
[Zn+2] [Zn^2+, zinc] | inhibited | relatively insensitive | 54% ± | partially restored | 6.6% ± |  |  |  |  |  |  |  |  |  |  |  |  |  | 
